Measured values published in patent US11564392B2, “Methods of inactivation of viruses using n-methlyglucamide and its derivatives” (BAYER HEALTHCARE LLC, priority 2017, dated 2023).
Entries after “also recorded” stand apart in the source; their conditions may differ. Read-outs that look alike come from different tables or passages of the source.

Legend:
[1] = tested on: X-MuLV; type: cell-based, xenotropic murine leukemia virus; details: for X-MuLV inactivation (FIG. 4): 0.5×, 1×, 2× of the CMC, room temperature; for X-MuLV inactivation (FIG. 4) / X-MuLV inactivation (FIG. 5): within 30 minutes; for X-MuLV inactivation (FIG. 5): 1× and 2× of the CMC
[2] = 25° C.; cited from earlier work
[3] = type: physicochemical
Experimental: Each detergent was obtained as powder from the manufacturer and was appropriately weighed and allowed to dissolve in Milli-Q water. […] The detergents were stored in a dark container in 2-8° C. Table 2 lists the manufacturers of the detergent powders and the in-house preparation which are also detailed in the methods section. […] This occurrence has been observed by others as well and may have to do with the increasing fatty chain length that enhances the hydrophobicity thus decreasing the likelihood of solubility, especially in water (Gaber et al., Burczyk, 2007).

[4] = tested on: BVDV; type: cell-based, bovine viral diarrhea virus; details: for BVDV inactivation: Mega 10 0.2, 0.3, 0.4% (w/v), Mega 9 1.0% (w/v), 2.0° C.
[5] = tested on: X-MuLV; experiment: X-MuLV inactivation in rFVIII by methylglucamides with or without Tw20, TnBP or NaCl, TCID50 assay; type: cell-based, xenotropic murine leukemia virus
Experimental: Methylglucamides were tested with other compounds to determine potential synergistic effects on viral inactivation. […] Then, the titers of each samples or controls were assayed using a TCID50 assay previously described. For each experiment (FIGS. 15, 16 and 17), the controls consisted of rFVIII spiked with X-MuLV with no detergent, and the yielded titers within the expected range of about 6.5 log10 TCID50/ml.

[6] = molecular target: T1, recombinant FVIII (rFVIII) (Homo sapiens, UniProt P00451); experiment: Chromogenic assay to assess human Factor VIII activity after detergent incubation; type: biochemical; details: 0.3% (w/v)
T1 construct: recombinant human factor VIII (rFVIII) (full length wildtype, Bayer in-house preparation); made in house
Experimental: A diluent control of rFVIII matrix spiked only with Milli-Q H2O was also prepared and incubated under the same conditions. Following the incubation, detergents and diluent control were diluted in 1× assay buffer along with chromogenic assay (Chromogenix COATEST SP4 FVIII Kit, Cat: 82409463) FVIII standard and controls to the appropriate levels. Thirty μL of each detergent, control, and standard were loaded onto a 96-well plate in triplicate. Chromogenic assay reagents were added according to the manufacturer's protocol and incubated at 37.0° C. and 5.0% CO2 for 8 minutes. Assay plate was measured for absorbance t 405 and 492 nm on a Molecular Devices SpectraMax M5 microplate reader. Data was analyzed using SoftMax Pro v5.
The principle of the assay involves a specific step in the blood clotting mechanism, in which Factor X is converted to Factor Xa leading to the hydrolysis of the chromogenic substrate. This reaction is dependent on the activity of Factor VIII (FVIII) and directly correlates to measurable color intensity.

[7] = tested on: X-MuLV; type: cell-based, xenotropic murine leukemia virus
[8] = tested on: PRV; type: cell-based, porcine pseudorabies virus
[9] = rFVIII, 2° C., 30 min, Mega 8 1.81%, Mega 9 0.84%, Mega 10 0.20%, Mega 12 0.014% (w/v)
[10] = rFVIII, Room Temperature, 30 min, Mega 8 1.81%, Mega 9 0.45%, Mega 10 0.10%, Mega 12 0.014% (w/v)
[11] = 0.20% (w/v) Mega 10 or 0.71% (w/v) Mega 9, with or without NaCl
[12] = 0.3% (w/v), 2.0° C., 30 minutes

T1 sequence (P00451 20-2351): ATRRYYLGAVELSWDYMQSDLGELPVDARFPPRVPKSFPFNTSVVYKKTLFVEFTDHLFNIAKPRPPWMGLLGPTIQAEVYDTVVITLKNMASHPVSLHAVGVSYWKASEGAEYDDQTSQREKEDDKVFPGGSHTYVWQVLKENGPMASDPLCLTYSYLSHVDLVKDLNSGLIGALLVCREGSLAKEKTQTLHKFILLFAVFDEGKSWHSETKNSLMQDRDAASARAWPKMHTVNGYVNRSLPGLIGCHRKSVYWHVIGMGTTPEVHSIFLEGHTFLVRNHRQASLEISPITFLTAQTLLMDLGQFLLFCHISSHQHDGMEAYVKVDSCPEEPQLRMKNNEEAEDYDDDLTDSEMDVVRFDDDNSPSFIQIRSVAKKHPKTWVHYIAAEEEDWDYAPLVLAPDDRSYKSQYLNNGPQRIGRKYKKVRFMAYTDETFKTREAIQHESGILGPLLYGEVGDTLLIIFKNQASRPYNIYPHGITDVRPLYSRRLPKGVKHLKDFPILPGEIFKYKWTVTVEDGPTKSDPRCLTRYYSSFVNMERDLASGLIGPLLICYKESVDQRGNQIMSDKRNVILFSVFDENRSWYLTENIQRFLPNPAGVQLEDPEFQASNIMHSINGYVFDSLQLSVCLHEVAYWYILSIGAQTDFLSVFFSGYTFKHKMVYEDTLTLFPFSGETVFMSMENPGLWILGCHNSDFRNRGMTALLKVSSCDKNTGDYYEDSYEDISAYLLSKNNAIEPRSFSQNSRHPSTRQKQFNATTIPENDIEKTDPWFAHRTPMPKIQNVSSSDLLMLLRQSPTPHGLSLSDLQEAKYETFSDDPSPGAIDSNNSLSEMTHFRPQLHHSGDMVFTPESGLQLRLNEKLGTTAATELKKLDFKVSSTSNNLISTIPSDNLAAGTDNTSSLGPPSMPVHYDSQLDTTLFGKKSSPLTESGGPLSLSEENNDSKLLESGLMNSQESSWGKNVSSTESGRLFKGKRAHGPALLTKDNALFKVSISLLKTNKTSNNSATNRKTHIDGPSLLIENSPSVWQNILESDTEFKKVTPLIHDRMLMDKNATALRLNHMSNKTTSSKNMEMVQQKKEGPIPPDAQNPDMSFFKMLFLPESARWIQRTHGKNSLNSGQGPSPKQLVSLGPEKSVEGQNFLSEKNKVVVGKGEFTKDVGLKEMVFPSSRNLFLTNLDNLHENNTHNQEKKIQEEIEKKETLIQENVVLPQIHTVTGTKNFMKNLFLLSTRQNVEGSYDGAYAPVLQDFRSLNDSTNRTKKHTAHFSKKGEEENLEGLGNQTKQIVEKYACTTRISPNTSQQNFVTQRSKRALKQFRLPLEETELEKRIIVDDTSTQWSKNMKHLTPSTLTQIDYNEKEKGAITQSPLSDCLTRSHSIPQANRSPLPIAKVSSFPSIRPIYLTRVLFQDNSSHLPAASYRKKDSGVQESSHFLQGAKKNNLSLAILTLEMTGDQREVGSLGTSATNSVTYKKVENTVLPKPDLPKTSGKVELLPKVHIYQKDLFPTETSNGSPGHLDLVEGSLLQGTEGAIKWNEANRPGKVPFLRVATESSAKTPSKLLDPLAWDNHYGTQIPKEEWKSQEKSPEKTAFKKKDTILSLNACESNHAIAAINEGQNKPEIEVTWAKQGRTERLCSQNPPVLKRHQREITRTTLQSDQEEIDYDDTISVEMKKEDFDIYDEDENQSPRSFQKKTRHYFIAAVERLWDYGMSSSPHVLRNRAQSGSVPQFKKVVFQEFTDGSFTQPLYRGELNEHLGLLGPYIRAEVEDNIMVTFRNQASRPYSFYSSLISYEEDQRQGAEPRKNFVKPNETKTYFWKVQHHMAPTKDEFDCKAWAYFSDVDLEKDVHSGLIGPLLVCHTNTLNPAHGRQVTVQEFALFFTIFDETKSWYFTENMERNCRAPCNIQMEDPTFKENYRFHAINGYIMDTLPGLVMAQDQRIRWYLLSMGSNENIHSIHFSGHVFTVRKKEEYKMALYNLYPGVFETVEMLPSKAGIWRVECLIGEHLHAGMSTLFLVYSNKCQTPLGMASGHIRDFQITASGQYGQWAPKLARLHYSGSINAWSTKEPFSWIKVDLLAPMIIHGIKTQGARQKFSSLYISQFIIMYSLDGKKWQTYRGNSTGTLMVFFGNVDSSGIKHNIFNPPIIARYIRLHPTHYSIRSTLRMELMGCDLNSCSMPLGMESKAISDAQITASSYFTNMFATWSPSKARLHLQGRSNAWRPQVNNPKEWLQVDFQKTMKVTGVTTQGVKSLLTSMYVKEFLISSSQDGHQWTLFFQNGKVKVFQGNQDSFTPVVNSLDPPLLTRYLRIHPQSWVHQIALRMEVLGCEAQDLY
T1 sequence (P00451 1668-2351 limits assumed): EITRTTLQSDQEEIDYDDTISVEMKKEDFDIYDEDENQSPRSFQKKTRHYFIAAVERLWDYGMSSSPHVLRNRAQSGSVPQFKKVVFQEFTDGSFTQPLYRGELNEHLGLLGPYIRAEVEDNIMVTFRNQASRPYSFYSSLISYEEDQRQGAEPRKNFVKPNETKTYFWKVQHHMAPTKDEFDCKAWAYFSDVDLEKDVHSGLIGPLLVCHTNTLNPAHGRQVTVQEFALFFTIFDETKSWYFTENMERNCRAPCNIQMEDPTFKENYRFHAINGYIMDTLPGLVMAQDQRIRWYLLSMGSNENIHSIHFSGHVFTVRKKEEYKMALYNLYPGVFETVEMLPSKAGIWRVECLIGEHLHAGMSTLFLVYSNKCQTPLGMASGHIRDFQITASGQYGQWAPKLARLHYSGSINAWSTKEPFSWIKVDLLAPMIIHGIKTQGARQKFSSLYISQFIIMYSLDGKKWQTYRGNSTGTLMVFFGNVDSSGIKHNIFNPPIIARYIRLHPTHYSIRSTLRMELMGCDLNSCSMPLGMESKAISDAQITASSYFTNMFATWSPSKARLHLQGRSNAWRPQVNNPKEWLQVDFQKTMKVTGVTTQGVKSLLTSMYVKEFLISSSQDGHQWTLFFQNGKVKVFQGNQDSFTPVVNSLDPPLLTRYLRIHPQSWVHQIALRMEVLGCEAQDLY

Molecule | X-MuLV inactivation (FIG. 4) [1] | X-MuLV inactivation ([1]; 0.5×CMC, 2° C., 30 minutes) | X-MuLV inactivation ([1]; 0.5×CMC, 25° C., 30 minutes) | X-MuLV inactivation (FIG. 5) ([1]; 2.0° C.) | Infection observed [1, 9] | Log Reduction Factor (LRF) [1, 9] | Infection observed [1, 10] | Log Reduction Factor (LRF) [1, 10] | CMC [2] [mM] | solubilization of 5% (w/v) detergent in water [3] | BVDV inactivation ([4]; 30 minutes) | X-MuLV inactivation [5, 11] | X-MuLV inactivation [1, 12] | further results
CCCCCCCC(=O)N(C)C[C@H](O)[C@@H](O)[C@H](O)[C@H](O)CO [Mega 8, octanoyl-N-methylglucamide] | completely inactivated | No significant inactivation | No significant inactivation | completely inactivated | No | ≥4.37 | No | ≥4.32 | 58 | readily solubilized in water at room temperature |  |  |  | 
CCCCCCCCC(=O)N(C)C[C@H](O)[C@@H](O)[C@H](O)[C@H](O)CO [Mega 9, nonaoyl-N-methylglucamide] | completely inactivated | partially | completely | completely inactivated | No | ≥4.37 | No | ≥4.32 | 19 to 25 | readily solubilized in water at room temperature | completely inactivated | significantly inactivated |  | time to inactivate BVDV to the LOD ([4]; 1.0% (w/v)): ≤ 30 min; BVDV titer (detection limit) ([4]; 1.0% (w/v), 2.0±1.0° C., 30 minutes): ≤ 2.03 Log10 TCID50/mL
CCCCCCCCCC(=O)N(C)C[C@H](O)[C@@H](O)[C@H](O)[C@H](O)CO [Mega 10, decanoyl-N-methylglucamide] | completely inactivated | partially | completely | completely inactivated | No | ≥4.37 | No | ≥4.32 | 6 to 7 | solubilize within 15 minutes | completely inactivated | significantly inactivated | complete X-MuLV inactivation; also recorded: inactivated X-MuLV completely | speed of BVDV inactivation ([4]; 0.2%): immediately after mixing; Infection Observed [1]: No; Infection observed [1]: No; LRF [1]: ≥ 24.45; X-MuLV inactivation kinetics [1]: immediate decrease (complete inactivation); also recorded: immediately inactivated; X-MuLV titer after treatment (limit of detection) [1]: ≤ 2.03 TCID50/mL; lowest concentration to quickly and completely inactivate X-MuLV [1]: approximately 0.23%; time to reach limit of detection (LOD) [1]: ≤ 5 min; virus titer [1]: about 2.62 Log10 TCID50/mL; virus titer (complete inactivation) [1]: ≤ 2.03 Log10 TCID50/mL; effect on rFVIII activity ([6]; 2.0° C., 2 hour incubation): maintains its activity; also recorded: no effect on the activity of the protein drug; average activity of rFVIII ([6]; 2.0±1.0° C., 2 hours): 52.26 IU/mL; X-MuLV inactivation ([5]; 0.30% (w/v) M10 alone, +0.06% (w/v) Tw20, or +0.30% (w/v) TnBP, within 30 min): completely inactivated; X-MuLV titer (limit of detection) [7]: ≤ 2.03 Log10 TCID50/mL; X-MuLV inactivation ([7]; 0.2, 0.3, 0.4% (w/v) in human IgG and human plasma protein solutions, 2.0° C., 30 minutes): completely inactivated; PRV titer (limit of detection) ([8]; 0.2 and 0.3%, 2.0±1.0° C., 15 minutes): ≤ 2.03 Log10 TCID50/mL; time to inactivate PRV to the limit of detection ([8]; 0.2 or 0.3 (w/v), 2.0° C.): ≤ 15 min
CCCCCCCCCCCC(=O)N(C)CC(O)C(O)C(O)C(O)CO (stereo not shown) [Mega 12, dodecanoyl-N-methylglucamide] | completely inactivated | No significant inactivation | No significant inactivation | completely inactivated | No | ≥4.37 | No | ≥4.32 | 0.35 | not able to dissolve water in a 37 °C water bath |  |  |  | solubilization of 0.15% stock in water [3]: able to come into solution when placed in a 60 °C water bath within 15 minutes
P-tert-Octylphenoxy) polyethoxyethanol [Triton X-100, reference compound] |  |  |  |  |  |  |  |  |  |  |  |  | complete X-MuLV inactivation; also recorded: inactivated X-MuLV completely | X-MuLV titer after treatment (limit of detection) [1, 12]: ≤ 2.54 TCID50/mL
